Results taken from US5731432A, “Inhibitors of adenosine monophosphate deaminase” (priority 1994, dated 1998).
Where two headings read alike, the source gives them in different places.

Assays:
AMPDA = conditions: reported; kind of constant not stated; cited from earlier work
ADA = target: T1, ADA (Homo sapiens, UniProt P00813); conditions: reported; kind of constant not stated; cited from earlier work
T1 sequence (P00813 1-363): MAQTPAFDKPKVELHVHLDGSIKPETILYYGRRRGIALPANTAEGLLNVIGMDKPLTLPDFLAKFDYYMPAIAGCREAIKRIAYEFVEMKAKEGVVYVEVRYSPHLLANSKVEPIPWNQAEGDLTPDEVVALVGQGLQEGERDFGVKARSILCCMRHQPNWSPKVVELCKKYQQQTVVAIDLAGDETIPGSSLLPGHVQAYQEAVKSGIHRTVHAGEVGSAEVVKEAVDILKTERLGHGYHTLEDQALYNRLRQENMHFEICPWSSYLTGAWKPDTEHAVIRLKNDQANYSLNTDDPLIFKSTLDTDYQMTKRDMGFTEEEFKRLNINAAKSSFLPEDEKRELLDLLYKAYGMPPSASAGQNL

[1] = target: T2, adenosine deaminase (ADA) from calf intestinal mucosa (Bos taurus, UniProt P56658); assay: Adenosine Deaminase Assay (Example B); format: biochemical
T2 construct: adenosine deaminase (ADA) from calf intestinal mucosa; from tissue; host or cells: calf intestinal mucosa
T2 sequence (P56658 1-363): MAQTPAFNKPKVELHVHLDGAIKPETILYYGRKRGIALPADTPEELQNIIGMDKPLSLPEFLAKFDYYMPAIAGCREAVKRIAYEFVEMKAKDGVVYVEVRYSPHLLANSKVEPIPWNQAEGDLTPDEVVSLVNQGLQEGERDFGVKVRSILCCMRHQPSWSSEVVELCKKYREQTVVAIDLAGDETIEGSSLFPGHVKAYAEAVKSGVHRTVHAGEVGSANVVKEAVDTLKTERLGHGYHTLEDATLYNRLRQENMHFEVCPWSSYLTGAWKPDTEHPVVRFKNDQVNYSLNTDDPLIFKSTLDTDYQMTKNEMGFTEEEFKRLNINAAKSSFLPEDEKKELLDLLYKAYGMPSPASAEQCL
Procedure: Inhibition of adenosine deaminase (ADA) from calf intestinal mucosa was determined spectrophotometrically at pH 7.0 using one of the following two assays:
(1) Direct Assay: The reaction system mixture contained inhibitor, ~0.001 units ADA, and 40 mM potassium phosphate in 1 ml and at 37° C. The concentration of the substrate adenosine was varied from 20 to 100 μM.
The reaction was initiated by addition of adenosine and monitored continuously at 340 nm for 7 minutes as the decrease in absorbance reflects oxidation of NADH.

isolated rat hearts = assay: Functional recovery in isolated rat heart model of ischemia-reperfusion injury (Example D); conditions: low flow ischemia then 30 minutes reperfusion
Procedure: The ability of AMP deaminase inhibitors of the present invention to improve the recovery of post-ischemic function was examined in an isolated rat heart model of ischemia-reperfusion injury.
Isolated rat hearts were cannulated via the ascending aorta and attached to a perfusion apparatus according to the method of Langendorff. The hearts were perfused at a constant pressure of 100 cm of H2 O with a modified Krebs-Hanseleit buffer (pH 7.4) at 37° C. Left ventricular developed pressures (LVDP) were monitored continuously using a latex balloon attached to a pressure transducer. Coronary flows were measured gravimetrically by timed collection of pulmonary effluent. Following equilibration of the hearts for a period of 30 minutes, the hearts were subjected to […] of low flow ischemia, by reducing the perfusion pressure to 10 cm of H2 O, and then reperfused for 30 minutes by restoring the pressure to its original level (100 cm of H2 O). […] Compound 1 m provided recovery of LVDP to 83±2% compared to the placebo value of 65±2% when added to the perfusion to give a concentration of 0.3 μM.

[2] = tested on: Neutrophil-myocyte adhesion; assay: Inhibition of Neutrophil-Myocyte Adhesion (Example C); format: cell-based; conditions: read-out: Neutrophil-Myocyte Adhesion Inhibition IC50
Procedure: Isolated neutrophils and myocytes were stimulated with the cytokine, TNF-α, and incubated in the presence of the test compound. Neutrophil-myocyte adhesion was determined as described by […], et al., J. Clin. Invest.

[3] = target: AMPDA activity from porcine heart; assay: AMP Deaminase Assay (Example A); format: biochemical; conditions: for Ki: porcine heart AMPDA, 37° C., pH 6.5, competitive inhibition assumed; for Selectivity Ratio: selectivity ratio=[ADA Ki/Km]/[AMPDA Ki/Km], K = 1,000
Procedure: Catalysis was initiated by the addition of enzyme to the otherwise complete reaction mixture, and terminated after 5 minutes by injection into an HPLC system. Activities were determined from the amount of IMP formed during 5 minutes.

Rat Focal Stroke Model = assay: Rat model of ischemic brain injury / focal stroke (Example F); format: in vivo
Excerpt: Each rat is anesthetized with halothane and placed on a heating pad hooked up to a temperature regulator and connected to rectal probe. EEG electrodes are then inserted into the temporalis muscle bilaterally in between the eye and the ear. A midline incision is made to expose the left Common Carotid Artery (CCA). The internal Carotid Artery (ICA)is isolated and carefully separated from the adjacent vagus nerve. Following ligation of various vessels the ICA should be the only remaining extracranial branch of the CCA. Two 5-0 silk sutures are tied loosely around the external carotid artery (ECA)and microvascular clips placed on both the CCA (proximal to the bifurcation)and the ICA (in between the first and the second bifurcation). The ECA above the bifurcation is coagulated and the two sutures are then cut below the coagulation. A 25 mm length 4-0 nylon suture, its tip rounded by heating near a fine tipped cauterizer, is introduced into the ECA lumen. 20-22 mm of the suture is inserted into the ECA stump. The suture around the ECA is tightened to hold the occluding suture in place and EEC reading is checked to confirm occlusion by the appearance of a flat line. At this point the intraluminal suture has blocked the origin of the […] (MCA), occluding all sources of blood flow from the interior Carotid Artery (ICA), the […] (ACA), and the posterior cerebral artery (PCA). At 105 min later the suture is gently retracted under halothane anesthesia to allow blood flow back into the middle cerebral artery. The neck incision is closed and animals allowed to recover from anesthesia. At 24 hrs animals are evaluated for behavioral deficits, sacrificed, transcardial perfused, brains removed and TTC stained for visualization of infarcted region using a computer assisted system.
The application of compound 1d is shown in the time line diagram. Thirty minutes prior to induction of ischemia (SUTURE IN) Compound 1d in isotonic saline solution was infused for 15 min at a loading dose of 250 μg/kg/min (50 μl/min)followed by maintenance rate of 50 μg/kg/min for the remaining 12 hrs.

[4] = calf intestinal mucosa ADA, pH 7.0, read-out: ADA Ki
[5] = neutrophils and myocytes stimulated with TNF-α
[6] = Treated, Post reperfusion, mean ± sem

In the case of OC[C@H]1O[C@@H](n2cnc3c2N=CNC[C@H]3O)[C@H](O)[C@@H]1O [Coformycin, coformycin], the “inhibition of AMPDA” value (AMPDA) is given as 1000 nM and the “inhibition of ADA” value (ADA) is given as under 0.2 nM.
In the case of CCCCCCCn1cnc2c1N=CNCC2O (stereo not shown) [compound 1a, 3-heptylcoformycin aglycone], the Ki [1, 4] is reported as 0.35 µM, the “recovery of LVDP” value (isolated rat hearts; 3 μM in perfusion, placebo 69±1%) is reported as 83±3% and the IC50 [2] is reported as 12 ± 6 µM. For the same molecule, the Ki [3] was 10000 nM.
For CCCCCCCn1cnc2c1N=CNCC2(C)O (stereo not shown) [compound 1b, 3-heptyl-8-methylcoformycin aglycone], the Ki [1, 4] was 12 µM, the Ki [3] was 36000 nM and the “Selectivity Ratio” value [3] was 6.
In the case of CC(C)=CCC[C@H](C)CCn1cnc2c1N=CNCC2O (stereo partly drawn) [compound 1c, (3'S)-3-(3',7'-dimethyloct-6'-enyl)coformycin aglycone], the Ki [1, 4] is reported as 1.9 µM, the IC50 [2, 5] is reported as 5.1 ± 2.5 µM and the Ki [3] is reported as 1100 nM. The “Selectivity Ratio” value [3] was 29.
For OC1CNC=Nc2c1ncn2C1CCCCCC1 (stereo not shown) [compound 1d, 3-cycloheptylcoformycin aglycone], the Ki [1, 4] was 7.9 µM, the “Blood Pressure” value (Rat Focal Stroke Model; [6]) was 115 ± 4 mm Hg and the Temperature (Rat Focal Stroke Model; [6]) was 38.6 ± 0.2 °C. For the same molecule, the “Blood Pressure” value (Rat Focal Stroke Model; Treated, Pre, mean ± sem) was 102 ± 5 mm Hg, the Temperature (Rat Focal Stroke Model; Treated, T = 0, mean ± sem) was 37.4 ± 0.2 °C and the “Blood Pressure” value (Rat Focal Stroke Model; Treated, T = 60, mean ± sem) was 84 ± 9 mm Hg. It also gave a Temperature (Rat Focal Stroke Model; Treated, T = 60, mean ± sem) of 37.5 ± 0.2 °C, a pCO2 (Rat Focal Stroke Model; Treated, mean ± sem) of 37.8 ± 1.3 and a pH (Rat Focal Stroke Model; Treated, mean ± sem) of 7.379 ± 0.015. For the same molecule, the pO2 (Rat Focal Stroke Model; Treated, mean ± sem) was 142.3 ± 10.0, the “effect on physiological parameters such as blood pressure, heart rate, body temperature and blood gases” value (Rat Focal Stroke Model; continuous infusion) was “no apparent effect” and the “reduction of infarct volume” value (Rat Focal Stroke Model; infusion 250 μg/kg/min for 15 min then 50 μg/kg/min, vs control) was 52%. It also gave an infarct volume (Rat Focal Stroke Model; treated, n=8, control 139±31 (n=7), p=0.05) of 71±28 mm^3, an IC50 [2, 5] of 4.3 ± 1.3 µM and a Ki [3] of 8000 nM. The “Selectivity Ratio” value [3] was 17.
CC1(C)[C@H]2CC[C@H](Cn3cnc4c3N=CNCC4O)[C@@H]1C2 (stereo partly drawn) [compound 1e, (l'S,2'S,5'S)-3-(6',6'-dimethyl[3,1,1]-bicyclohept-2'-methyl)coformycin aglycone] showed a Ki [1, 4] of over 160 µM, an IC50 [2, 5] of 24 ± 3 µM and a Ki [3] of 1700 nM. For the same molecule, the “Selectivity Ratio” value [3] was over 1.6K.
Molecule Cc1ccccc1CCCn1cnc2c1N=CNCC2O (stereo not shown) [compound 1f, 3-(3'-(2"-methylphenyl)propyl)coformycin aglycone] has a Ki [1, 4] of 0.042 µM, an IC50 [2, 5] of 1.4 ± 0.45 µM and a Ki [3] of 2100 nM. The “Selectivity Ratio” value [3] was 0.34.
In the case of CC1=Nc2c(ncn2CCCc2ccccc2C)C(O)CN1 (stereo not shown) [compound 1g, 5-methyl-3-(3'-(2"-methylphenyl)propyl)coformycin aglycone], the Ki [1, 4] is reported as over 100 µM, the Ki [3] is reported as 11000 nM and the “Selectivity Ratio” value [3] is reported as over 150.
With [N-]=[N+]=NC1CNC=Nc2c1ncn2CCCc1ccccc1 (stereo not shown) [compound 1h] the Ki [1, 4] was 0.063 µM, the Ki [3] was 6600 nM and the “Selectivity Ratio” value [3] was 0.16.
For CCCOc1ccc(CCCn2cnc3c2N=CNCC3O)cc1 (stereo not shown) [compound 1i, 3-(3'-(4"-propoxyphenyl)propyl)coformycin aglycone], the Ki [1, 4] was 0.006 µM, the Ki [3] was 3600 nM and the “Selectivity Ratio” value [3] was 0.03.
Molecule O=C(O)C(CCCCn1cnc2c1NC=NCC2O)Cc1ccccc1 (stereo not shown) [compound 1j, 3-(5'-carboxy-6'-phenylhexyl)coformycin aglycone] has a Ki [1, 4] of over 200 µM and an IC50 [2, 5] of 0.045 ± 0.01 µM.
For O=C(O)C(CCCCn1cnc2c1N=CNCC2O)C(=O)OCc1ccccc1 (stereo not shown) [compound 1k, 3-(5'-carboxy-5'-carbobenzyloxypentyl)coformycin aglycone], the Ki [1, 4] was over 1000 µM, the Ki [3] was 360 nM and the “Selectivity Ratio” value [3] was over 47K.
With CC(CCCCn1cnc2c1N=CNCC2O)(C(=O)O)C(=O)NCc1ccccc1 (stereo not shown) [compound 1l, 3-(5'-carbox-N-benzylamido-5'-carboxyhexyl)coformycin aglycone] the Ki [1, 4] was over 1000 µM, the Ki [3] was 2700 nM and the “Selectivity Ratio” value [3] was over 6.3K.
With Cc1ccc(C(=O)O)cc1CCn1cnc2c1N=CNCC2O (stereo not shown) [compound 1m, 3-(2'-(3"-carboxy-6"-methylphenyl)ethyl)coformycin aglycone] the Ki [1, 4] was over 1000 µM, the “recovery of LVDP” value (isolated rat hearts; 0.3 μM in perfusion, placebo 65±2%) was 83±2% and the IC50 [2] was 0.03 ± 0.01 µM. The Ki [3] was 97 nM and the “Selectivity Ratio” value [3] was over 175K.
With Cc1ccc(-c2nn[nH]n2)cc1CCn1cnc2c1N=CNCC2O (stereo not shown) [compound 1n, 3-(2'-(6"-methyl-3"-(tetrazol-5'"-yl)phenyl)ethyl)coformycin aglycone] the Ki [1] was over 200 µM, the Ki [3] was 1600 nM and the “Selectivity Ratio” value [3] was over 2.1K.
Molecule O=C(O)c1cc(CCn2cnc3c2N=CNCC3O)cs1 (stereo not shown) [compound 1o, 3-(2'-(2"-carboxythiophen-4"-yl)ethyl)coformycin aglycone] has a Ki [1, 4] of over 6 µM, an IC50 [2, 5] of 8 ± 2 µM and a Ki [3] of 2200 nM. For the same molecule, the “Selectivity Ratio” value [3] was 590.
In the case of O=C(O)c1cc(CCn2cnc3c2N=CNCC3O)c2ccccc2c1 (stereo not shown) [compound 1p, 3-(2'-(3"-carboxynaphthyl)ethyl)coformycin aglycone], the Ki [1, 4] is reported as over 1000 µM, the Ki [3] is reported as 20 nM and the “Selectivity Ratio” value [3] is reported as over 850K.
For OC[C@H]1O[C@@H](n2cnc3c2NC=NC[C@H]3O)C[C@@H]1O [deoxycoformycin], the “inhibition of AMPDA” value (AMPDA) is given as 1000 nM.
